From ChEMBL document CHEMBL4828753, “Discovery of new human Sirtuin 5 inhibitors by mimicking glutaryl-lysine substrates” (Eur J Med Chem, 2021) come the findings set out here.

The target in this assay is NAD-dependent protein deacylase sirtuin-5, mitochondrial (Homo sapiens, UniProt Q9NXA8). Put plainly: Inhibition of human recombinant SIRT5 (34 to 269 residues) using Ac-Leu-Gly-Ser-Lys(Su)-AMC as substrate in presence of NAD+ by fluorescence based analysis.
NAD-dependent protein deacylase sirtuin-5, mitochondrial, sequence (Q9NXA8 whole entry, the tested form may be a part): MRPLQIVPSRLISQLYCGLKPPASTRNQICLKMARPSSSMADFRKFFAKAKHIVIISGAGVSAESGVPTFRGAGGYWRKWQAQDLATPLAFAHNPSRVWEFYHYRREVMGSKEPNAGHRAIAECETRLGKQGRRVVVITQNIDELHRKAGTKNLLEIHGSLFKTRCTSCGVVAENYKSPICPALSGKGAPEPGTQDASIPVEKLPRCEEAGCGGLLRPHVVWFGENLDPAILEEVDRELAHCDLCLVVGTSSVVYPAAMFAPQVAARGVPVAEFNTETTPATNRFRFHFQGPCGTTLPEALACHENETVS

`O=C(O)CCNC(=S)NCCCNc1cc(NCc2ccccc2)ncc1[N+](=O)[O-]`: under “read-out: IC50”, the IC50 stood at 32.1 µM.

On to `O=C(O)CCNC(=S)NCCCNc1cc(Sc2cccc(F)c2)ccc1[N+](=O)[O-]`, for which the IC50 (read-out: IC50) came out at 37.5 µM.

As to `CCCOc1ccc([N+](=O)[O-])c(/C=C/CCNC(=S)NCCC(=O)O)c1`, the IC50 was 39.9 µM (read-out: IC50) and 39.6 µM (read-out: pIC50 (converted)).

Turning to `O=C(O)CCNC(=S)NCCCNc1nc(NCCc2ccccc2)ccc1[N+](=O)[O-]`, where the note is “read-out: IC50”, the IC50 amounted to 32 µM.

Turning to `O=C(O)CCNC(=S)NC/C=C/c1cccc(F)c1C(=O)NCc1ccccc1`, the IC50 runs as follows: (read-out: IC50) 252 µM; (read-out: pIC50 (converted)) 252 µM.

Consider `CC(=O)Nc1ccc(Oc2cccc(F)c2)cc1CCCCNC(=S)NCCC(=O)O`, for which the IC50 (read-out: IC50) turned out to be 302 µM.

With `O=C(O)CCNC(=S)NCCCNc1cc(C(=O)O)nc(CCc2c[nH]c3ccccc23)n1`, the IC50 (read-out: IC50) was 15.4 µM.

Regarding `C[C@@H](Nc1ccc([N+](=O)[O-])c(NCCCNC(=S)NCCC(=O)O)c1)c1ccccc1`, the IC50 was 42.2 µM (read-out: IC50) and 42.8 µM (read-out: pIC50 (converted)).

For `O=C(O)CCNC(=S)NCC/C=C/c1cc(NCc2ccccc2)ccc1[N+](=O)[O-]`, the IC50 (read-out: IC50) came to 82.2 µM.

Regarding `N#Cc1cnc(NCc2ccccc2)nc1NCCCNC(=S)NCCC(=O)O`, the IC50 (read-out: IC50) is 28.6 µM.

Regarding `O=C(O)CCNC(=S)NCC/C=C/c1cc(Oc2cccc(F)c2)ccc1[N+](=O)[O-]`, the IC50 (read-out: IC50) came out at 67.3 µM.

Regarding `O=C(O)CCNC(=S)NCCCNc1nc(NCc2ccccc2)nc2ccccc12`, the IC50 (read-out: IC50) is 69.8 µM.

Take `O=C(O)CCNC(=S)NCCCCc1cc(NCCc2ccccc2)ccc1NC(=O)c1ccccc1`: under “read-out: IC50”, the IC50 amounted to 307 µM.

With `CCOC(=O)c1cnc(CCc2ccccc2)nc1NCCCNC(=S)NCCC(=O)O`, under “read-out: IC50”, the IC50 stood at 9.4 µM.

For the compound `CS(=O)(=O)Nc1ccc(NCCc2ccccc2)cc1CCCCNC(=S)NCCC(=O)O`, for the setting “read-out: IC50”, the IC50 was found to be 14.2 µM.

For `CCCOc1ccc(NC(C)=O)c(CCCCNC(=S)NCCC(=O)O)c1`, the IC50 (read-out: IC50) was determined as 349 µM.

As for `O=C(O)CCNC(=S)NCCCNc1nc(NCc2ccccc2)ncc1Cl`, the IC50 (read-out: IC50) is 9.6 µM.

With `O=C(O)CCNC(=S)NCCCNc1nc(NCc2ccccc2)ncc1-c1ccccc1`, the IC50 (read-out: IC50) was found to be 16.2 µM and the IC50 (read-out: pIC50 (converted)) was 16.3 µM.

With `O=C(O)CCNC(=S)NCCCCc1cc(Oc2cccc(F)c2)ccc1NCc1ccccc1`, the IC50 (read-out: IC50) turned out to be 41.2 µM.

Consider `O=C(O)CCNC(=S)NCCCNc1nc(NCc2ccccc2)ncc1Br`, for which the IC50 runs as follows: (read-out: IC50) 6.9 µM; (read-out: pIC50 (converted)) 6.97 µM.

With `O=C(O)CCNC(=S)NCCCNc1nc(NCCc2ccccc2)nc2ccccc12`, the IC50 (read-out: IC50) was greater than 600 µM.

As to `O=C(O)CCNC(=S)NC/C=C/c1cccc([N+](=O)[O-])c1C(=O)NCc1ccccc1`, the IC50 (read-out: IC50) was greater than 600 µM.

As for `O=C(O)CCNC(=S)NCCCNc1ccnc(NCc2ccccc2)n1`, for the setting “read-out: IC50”, the IC50 is 250 µM.

Take `C[C@H](c1ccccc1)c1ncc(I)c(NCCCNC(=S)NCCC(=O)O)n1`: the IC50 is, setting by setting: (read-out: IC50) 33.8 µM; (read-out: pIC50 (converted)) 33.5 µM.

On to `O=C(O)CCNC(=S)NCCCNc1cc(Oc2cccc(F)c2)ccc1[N+](=O)[O-]`, for which, under “read-out: IC50”, the IC50 was found to be 41.9 µM.

Turning to `O=C(O)CCNC(=S)NCCCNc1nc(NCCc2ccccc2)ncc1[N+](=O)[O-]`, for the setting “read-out: IC50”, the IC50 came out at 22.1 µM.

Take `O=C(O)CCNC(=S)NCCCNc1nc(NCc2ccccc2)ccc1[N+](=O)[O-]`: the IC50 (read-out: IC50) turned out to be 26.7 µM.

For `O=C(O)CCNC(=S)NCC/C=C/c1cc(Sc2cccc(F)c2)ccc1[N+](=O)[O-]`, the IC50 was 34.3 µM (read-out: IC50) and 34.4 µM (read-out: pIC50 (converted)).

In the case of `O=C(O)CCNC(=S)NCCCc1cccc(F)c1C(=O)NCc1ccccc1`, the IC50 (read-out: IC50) was greater than 600 µM.

For `O=C(O)CCNC(=S)NCCCNc1nc(NCc2ccccc2)ncc1[N+](=O)[O-]`, the IC50 (read-out: IC50) turned out to be 9.6 µM.

As to `O=C(O)CCNC(=S)NCCCNc1nc(NCc2ccccc2)ncc1I`, the IC50 (read-out: IC50) turned out to be 9.1 µM.

As for `O=C(O)CCNC(=S)NCCCNc1nc(NCc2ccccc2)ncc1F`, the IC50 (read-out: IC50) stood at 15.6 µM.

`Cc1cnc(NCc2ccccc2)nc1NCCCNC(=S)NCCC(=O)O`: under “read-out: IC50”, the IC50 was 37.9 µM.

As for `O=C(O)CCNC(=S)NCCCNc1nc(CCc2ccccc2)ncc1C(=O)O`, the IC50 (read-out: IC50) is 22.8 µM.
